Test results taken from patent publication US20250281502A1, “NEW DRUG APPLICATION” (Centre National de la Recherche Scientifique, priority 2021, published 2025).

How the values were obtained:
[1] = test system: Human Myeloma Cell Lines (HMCLs); assay: CellTiter-Glo cell viability, IC50 in human myeloma cell lines; format: cell-based
Procedure: JJN3, OPM2, RPM18266, LP1, AMO1, SKMM2 human myeloma cell lines (HMCLs) were obtained from ATCC (Molshein, France) and were cultured in RPMI 1640 medium, supplemented with 10% fetal calf serum (Biochrom, Berlin, Germany) and 2 mM L-Glutamine. The interleukin-6-dependent cell lines XG1, XG2, XG6, XG7, XG12, XG19, XG20, XG21 were obtained as previously described and maintained in the presence of 2 ng/mL recombinant IL-6 (R&D Systems, Oxon, UK), 10% fetal calf serum and 2 mM L-Glutamine.
Cells in culture were stained using trypan blue solution (Sigma-Aldrich, St. Louis MO, USA) and viable cells were counted under a light microscope. The CellTiter-Glo Luminescent Viability assay (Promega, Leiden, The Netherlands) was used to measure the effect on cell viability according to manufacturer's instructions, and the 50% inhibition (IC50) was determined using GraphPad Prism software (http://www.graphpad.com/scientific-software/prism/).

XG2 cell line = assay: Melphalan IC50 with or without Pyridostatin, XG2 cell line; format: cell-based; settings: Homo sapiens
XG2-MeIR cell line = assay: Melphalan response with or without Pyridostatin, Melphalan-resistant XG2 cell line; format: cell-based, human; settings: 4 days (FIGS. 14 and 15)
[2] = test system: primary MM cells from patients; assay: Primary patient samples, viable CD138+ MM cells by flow cytometry; format: cell-based, human; settings: co-cultured with bone marrow microenvironment (FIG. 6B, 6C)
[3] = test system: normal cells from the bone marrow microenvironment; assay: Primary patient samples, co-cultured normal bone marrow cells by flow cytometry; format: cell-based, human; settings: five MM patients (FIG. 6C)
Procedure: FIG. 6A represents the IC50 of Pyridostatin (nM) for […]: a is OPM2; b is XG12; c is XG21; d is XG19; e is RPM18266; f is LP1; g is XG6; h is JJN3; I is XG2; j is XG7; k: L363; I is XG1; m is AMO1; n is SKMM2 and o is XG20. IC50 of Pyridostatin +/−SD are representative of 3 independent experiments. NA: not reached. FIG. 6B represents the Pyridostatin toxicity on bone marrow cells (x-axis is the Pyridostatin concentration in μM; y-axis is the cell count in percentage of the control (0 μM of Pyridostatin)). The toxicity of Pyridostatin was assessed on primary bone marrow cells from one MM patient (dark grey bars), co-cultured with normal bone marrow microenvironment (light grey). The toxicity on MM cells and normal bone marrow cells was assessed by flow cytometry using CD138 and CD28 marker cells. FIG. 6C represents the Pyridostatin toxicity on bone marrow cells (x-axis is the Pyridostatin concentration in μM; y-axis is the cell count in percentage of the control (0 μM of Pyridostatin)). The toxicity of Pyridostatin was assessed on primary bone marrow cells from five MM patient (black bars) and co-cultured with normal bone marrow microenvironment (grey bars). The toxicity on MM cells and normal bone marrow cells was assessed by flow cytometry using CD138 and CD28 marker cells. Data are mean values of five independent experiments. […]

XG7-RH = assay: Western blot of DNA damage response in XG7 with inducible RNase H; format: cell-based, human; settings: XG7-RH with doxycycline, 5 h or 24 h (FIG. 7)
Procedure: FIGS. 7A and 7B represent Western blots. Doxy stands for doxycycline. PDS stands for Pyridostatin (concentration in μM). XG7 cell line was transduced with a doxycycline-inducible lentivirus containing RNase H gene (XG7-RH). XG7-RH was cultured with or without doxycycline in absence or presence of Pyridostatin during 5 h or 24 h. Western blot membranes were stained with anti-Phospho-Chk2, anti-Phospho-P53, anti-P53, anti-PARP, anti-myc (FIG. 7A) and anti-p21, anti-p16, anti-p27 and anti-gH2AX (FIG. 7B). Tubulin protein level was used as control.
Western Blot Analysis Western blot analysis was performed as previously described (Viziteu, E. et al., Leukemia 31, 2104-2113, 2017). Tubulin was used as loading control. All antibodies used were purchased from Cell Signaling, except for p21, p27, Myc, and phospho-Histone H2A.X. Myc antibody was obtained from Santa Cruz biotechnology (Texas, USA), phospho-Histone H2A.X antibody from Merck Millipore (Sigma-Aldrich), and p27 antibody was from Sigma-Aldrich.

MM cell = MM cell growth, apoptosis and cell cycle after Pyridostatin; format: cell-based, human

In the case of `CCNC(=O)C[C@@H]1N=C(c2ccc(Cl)cc2)c2cc(OC)ccc2-n2c(C)nnc21` [I-BET-762, (4S)-6-(4-Chlorophenyl)-N-ethyl-8-methoxy-1-methyl-4H-[1,2,4]triazolo[4,3-a][1,4]benzodiazepine-4-acetamide], the “sensitivity of HMCLs with high TRC score compared to low TRC score” value [1] is reported as “significantly more sensitive”.
`N[C@@H](Cc1ccc(N(CCCl)CCCl)cc1)C(=O)O` [Melphalan] was tested, and the IC50 (XG2 cell line; 96 h, black bars, Melphalan and Pyridostatin at 1.25 μM for 4 days, first value printed for XG2 (FIG. 15)) was 1490 nM, the IC50 (XG2 cell line; 96 h, black bars, Melphalan and Pyridostatin at 1.25 μM for 4 days, second value printed for XG2 (FIG. 15)) was 632 nM and the IC50 (XG2 cell line; grey bars, Melphalan alone, first value printed for XG2 (FIG. 15)) was 632 nM. It also gave an IC50 (XG2 cell line; grey bars, Melphalan alone, second value printed for XG2 (FIG. 15)) of 350 nM.
With `NCCOc1cc(C(=O)Nc2cc(OCCN)c3ccccc3n2)nc(C(=O)Nc2cc(OCCN)c3ccccc3n2)c1` [Pyridostatin] the “resistance to PDS” value ([1]; 5 cell lines (FIG. 6A)) was “higher resistance”, the IC50 ([1]; Homo sapiens, 10 HMCLs (FIG. 6A), read-out: IC50 of Pyridostatin) was ≤ 2000 nM and the “re-sensitization of resistant cells to Melphalan” value (XG2-MeIR cell line) was “re-sensitize the resistant cells (XG2-MeIR) to Melphalan”. The “toxicity on primary MM cells” value [2] was “toxicity”, the “toxicity on co-cultured normal cells” value [3] was “without any significant toxicity” and the “DNA damage response after PDS treatment on inducible RNase H expression (phosphorylation of Chk2, p53; p21 and p16 expression)” value (XG7-RH) was “significant reduction of DNA damage response”. The MM cell growth (MM cell) was “inhibits MM cell growth”, the apoptosis (MM cell) was “induces apoptosis” and the cell cycle (MM cell) was “significant accumulation in G2/M phase”.
In the case of `COc1cc(OC)c2c(=O)[nH]c(-c3cc(C)c(OCCO)c(C)c3)nc2c1` [RVX-208, 2-[4-(2-hydroxyethoxy)-3,5-dimethylphenyl]-5,7-dimethoxy-4(3H)-quinazolinone], the “sensitivity of HMCLs with high TRC score compared to low TRC score” value [1] is reported as “significantly more sensitive”.
